In ChEMBL document CHEMBL5380807, “Imidazo[1,2-a]Pyridine Derivatives as Novel Dual-Target Inhibitors of ABCB1 and ABCG2 for Reversing Multidrug Resistance” (J Med Chem, 2023):
Active and inactive are the calls of the source. The rule behind the calls is not given here.

Key:
K562 [1] = assay: Reversal of ABCB1 mediated adriamycin resistance in human K562 cells assessed as reduction in survival rate at 1 uM preincubated for 1 hrs followed by adriamycin addition and measured after 72 hrs by MTS assay; format: functional, cell-based; conditions: time 73.0 hrs
K562/A02 [2] = assay: Reversal of ABCB1 mediated adriamycin resistance in human K562/A02 cells overexpressing ABCB1 assessed as reduction in survival rate at 5 uM preincubated for 1 hrs followed by adriamycin addition and measured after 72 hrs by MTS assay; format: functional
K562 [3] = assay: Reversal of ABCB1 mediated adriamycin resistance in human K562 cells assessed as reduction in survival rate at 5 uM preincubated for 1 hrs followed by adriamycin addition and measured after 72 hrs by MTS assay; format: functional, cell-based; conditions: time 73.0 hrs
K562 [4] = assay: Reversal of ABCB1 mediated adriamycin resistance in human K562 assessed as decrease in survival rate at 1.25 to 5 uM preincubated for 1 hrs followed by adriamycin addition and measured after 72 hrs by MTS assay; format: functional, cell-based; conditions: dose 1.25-5 µM, time 73.0 hrs
[5] = Cytotoxicity against human K562/A02 cells overexpressing ABCB1 assessed as decrease in cell survival rate incubated for 72 hrs by MTS assay; format: toxicity, cell-based
K562/A02 [6] = assay: Reversal of ABCB1 mediated adriamycin resistance in human K562/A02 cells overexpressing ABCB1 assessed as reduction in survival rate at 1 uM preincubated for 1 hrs followed by adriamycin addition and measured after 72 hrs by MTS assay; format: functional
[7] = Cytotoxicity against human K562 cells assessed as decrease in cell survival rate incubated for 72 hrs by MTS assay; format: toxicity, cell-based
K562/A02 [8] = assay: Reversal of ABCB1 mediated adriamycin resistance in human K562/A02 overexpressing ABCB1 assessed as decrease in survival rate at 1.25 to 5 uM preincubated for 1 hrs followed by adriamycin addition and measured after 72 hrs by MTS assay; format: functional, cell-based; conditions: dose 1.25-5 µM, time 73.0 hrs
K562 [9] = assay: Cytotoxicity against human K562 cells assessed as decrease in cell survival rate at 5 uM incubated for 72 hrs by MTS assay; format: toxicity, cell-based; conditions: k562, 72 h
K562/A02 [10] = assay: Cytotoxicity against human K562/A02 cells overexpressing ABCB1 assessed as decrease in cell survival rate at 5 uM incubated for 72 hrs by MTS assay; format: toxicity, cell-based; conditions: k562/a02, 72 h
K562/A02 [11] = assay: Reversal of ABCB1 mediated multidrug resistance in human K562/A02 cells overexpressing ABCB1 assessed as decrease in survival rate at 5 uM preincubated for 1 hrs followed by vincristine addition and measured after 72 hrs by MTS assay; format: functional; conditions: time 73 hrs
[12] = biological target: ATP-dependent translocase ABCB1 (Homo sapiens, UniProt P08183); assay: Inhibition of ABCB1 (unknown origin) ATPase activity assessed as decrease in luminescence by firefly luciferase reporter assay
K562 [13] = assay: Antitumor activity against human K562 cells xenografted in BALB/c mouse assessed as tumor growth inhibition at 20 mg/kg, ip QD for 14 days in presence of adriamycin; format: functional, organism-based; conditions: time 14.0 day
HEK293 [14] = assay: Reversal of ABCG2 mediated mitoxantrone resistance in human HEK293 overexpressing ABCG2 assessed as decrease in survival rate at 1.25 to 5 uM preincubated for 1 hrs followed by mitoxantrone addition and measured after 72 hrs by SRB assay; format: functional, cell-based; conditions: dose 1.25-5 µM, time 73.0 hrs
HEK293 [15] = assay: Reversal of ABCG2 mediated mitoxantrone resistance in human HEK293 assessed as decrease in survival rate at 1.25 to 5 uM preincubated for 1 hrs followed by mitoxantrone addition and measured after 72 hrs by SRB assay; format: functional, cell-based; conditions: dose 1.25-5 µM, time 73.0 hrs
[16] = biological target: T1, Broad substrate specificity ATP-binding cassette transporter ABCG2 (Homo sapiens, UniProt Q9UNQ0); assay: Inhibition of ABCG2 (unknown origin) ATPase activity assessed as decrease in luminescence by firefly luciferase reporter assay
T1 sequence (Q9UNQ0 whole entry): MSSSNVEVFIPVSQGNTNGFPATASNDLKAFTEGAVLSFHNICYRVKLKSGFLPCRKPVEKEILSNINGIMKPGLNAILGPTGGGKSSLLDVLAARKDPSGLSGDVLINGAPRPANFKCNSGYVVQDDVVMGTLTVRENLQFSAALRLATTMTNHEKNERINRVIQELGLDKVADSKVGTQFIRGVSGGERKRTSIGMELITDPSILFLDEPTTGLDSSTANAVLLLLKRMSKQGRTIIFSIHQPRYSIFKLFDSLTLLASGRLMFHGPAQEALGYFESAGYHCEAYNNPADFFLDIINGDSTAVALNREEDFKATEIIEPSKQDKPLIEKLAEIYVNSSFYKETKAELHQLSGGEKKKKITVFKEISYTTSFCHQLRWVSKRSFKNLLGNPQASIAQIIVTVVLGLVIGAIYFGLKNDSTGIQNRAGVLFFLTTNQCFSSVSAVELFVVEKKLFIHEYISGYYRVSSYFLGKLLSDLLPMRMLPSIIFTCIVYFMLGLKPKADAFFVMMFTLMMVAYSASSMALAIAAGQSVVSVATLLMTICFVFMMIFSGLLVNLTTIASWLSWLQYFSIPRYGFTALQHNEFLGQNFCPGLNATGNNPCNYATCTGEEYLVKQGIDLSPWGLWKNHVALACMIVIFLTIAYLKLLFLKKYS

K562/A02 [17] = assay: Reversal of ABCB1 mediated adriamycin resistance in human K562/A02 overexpressing ABCB1 assessed as decrease in survival rate at 5 uM preincubated for 1 hrs followed by adriamycin addition and measured after 72 hrs by MTS assay; format: functional
[18] = Cytotoxicity against human HEK293 cells assessed as reduction in cell viability incubated for 72 hrs by SRB assay; format: toxicity, cell-based
[19] = Cytotoxicity against human HEK293 cells expressing ABCG2 assessed as reduction in cell viability incubated for 72 hrs by SRB assay; format: toxicity, cell-based

Chain of ATP-dependent translocase ABCB1 (P08183 whole entry): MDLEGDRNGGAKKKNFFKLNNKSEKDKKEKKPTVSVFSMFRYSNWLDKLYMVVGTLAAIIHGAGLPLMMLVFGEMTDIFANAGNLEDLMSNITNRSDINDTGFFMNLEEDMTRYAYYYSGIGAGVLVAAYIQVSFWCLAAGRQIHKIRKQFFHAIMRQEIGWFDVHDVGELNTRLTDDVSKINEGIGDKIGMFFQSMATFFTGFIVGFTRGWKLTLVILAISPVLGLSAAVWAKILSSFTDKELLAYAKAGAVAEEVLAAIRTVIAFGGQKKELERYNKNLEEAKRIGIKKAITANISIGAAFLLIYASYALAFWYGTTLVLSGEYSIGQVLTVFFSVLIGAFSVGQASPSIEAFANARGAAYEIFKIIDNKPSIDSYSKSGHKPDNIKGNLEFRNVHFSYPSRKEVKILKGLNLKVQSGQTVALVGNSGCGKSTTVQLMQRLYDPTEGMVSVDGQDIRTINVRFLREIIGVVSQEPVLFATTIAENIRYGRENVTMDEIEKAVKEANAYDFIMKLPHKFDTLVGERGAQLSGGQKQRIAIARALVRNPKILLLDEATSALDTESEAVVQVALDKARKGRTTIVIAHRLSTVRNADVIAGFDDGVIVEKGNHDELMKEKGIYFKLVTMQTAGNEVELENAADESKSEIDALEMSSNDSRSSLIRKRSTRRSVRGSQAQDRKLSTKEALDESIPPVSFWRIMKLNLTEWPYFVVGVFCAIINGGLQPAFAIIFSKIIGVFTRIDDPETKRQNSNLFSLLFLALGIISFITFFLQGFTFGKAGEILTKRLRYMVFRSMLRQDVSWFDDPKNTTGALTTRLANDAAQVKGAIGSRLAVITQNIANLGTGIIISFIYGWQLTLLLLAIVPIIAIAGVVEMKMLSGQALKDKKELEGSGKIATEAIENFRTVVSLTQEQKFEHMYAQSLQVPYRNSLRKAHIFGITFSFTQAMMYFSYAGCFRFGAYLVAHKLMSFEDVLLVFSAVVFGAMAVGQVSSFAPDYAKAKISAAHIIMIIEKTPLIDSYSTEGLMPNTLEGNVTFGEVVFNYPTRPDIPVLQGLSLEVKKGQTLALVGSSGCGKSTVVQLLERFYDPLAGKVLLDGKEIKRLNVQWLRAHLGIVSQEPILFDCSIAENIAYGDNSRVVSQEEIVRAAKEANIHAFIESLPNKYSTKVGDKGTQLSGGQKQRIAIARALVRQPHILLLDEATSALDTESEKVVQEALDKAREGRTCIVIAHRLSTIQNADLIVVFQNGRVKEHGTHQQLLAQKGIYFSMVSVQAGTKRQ

Compound | Activity (K562 [1]) | Activity (K562 [3]) | Activity (K562 [9]) | Activity (K562/A02 [10]) | Activity (K562/A02 [2]; time 73.0 hrs) | Activity (K562/A02 [6]; time 73.0 hrs) | also measured
COc1cc2c(cc1OC)CN(CC(=O)Nc1ccc(-c3nc4ccccn4c3CN3CCc4cc(OC)c(OC)cc4C3)cc1)CC2 | inactive | inactive | Non-Toxic | Non-Toxic | – | – | Activity (K562/A02 [2]; time 73 hrs): 39%; Activity (K562 [4]): inactive; IC50 at 72 h [5]: > 100 µM; Activity (K562/A02 [6]; time 73 hrs): 61%; IC50 at 72 h [7]: > 100 µM; Activity (K562/A02 [8]): Active
COc1ccc(CCN(C)CCCC(C#N)(c2ccc(OC)c(OC)c2)C(C)C)cc1OC (centres undefined) | Active | Active | – | – | – | – | Activity (K562/A02 [2]; time 73 hrs): 51%; Activity (K562/A02 [11]): 56%; inhibition (INH) [12]: Not Active; Activity (K562/A02 [6]; time 73 hrs): 70%; Activity (K562 [13]): inactive
CC(=O)N1CCN(c2ccc(OCC3COC(Cn4ccnc4)(c4ccc(Cl)cc4Cl)O3)cc2)CC1 (centres undefined) | – | – | – | – | – | – | Activity (HEK293 [14]): Active; Activity (HEK293 [15]): inactive
COc1cc2c(cc1OC)CN(CC(=O)Nc1ccc(-c3nc4ccccn4c3CN3CCCC3)cc1)CC2 | inactive | inactive | Non-Toxic | Non-Toxic | Active | Active | –
COc1cc2c(cc1OC)CN(CC(=O)Nc1ccc(-c3nc4ccccn4c3CN3CCCCC3)cc1)CC2 | Active | Active | Non-Toxic | Non-Toxic | Active | Active | –
CC[C@@]1(O)C(=O)OCc2c1cc1n(c2=O)Cc2cc3c(CN(C)C)c(O)ccc3nc2-1 [TOPOTECAN] | – | – | – | – | – | – | inhibition (INH) [12]: Not Active; inhibition (INH) [16]: Not Active
COc1cc2c(cc1OC)CN(CC(=O)Nc1ccc(-c3nc4ccccn4c3COCc3ccc(Cl)cc3)cc1)CC2 | Active | Active | Non-Toxic | Non-Toxic | Active | Active | –
COc1ccc(/C=C/C(=O)Nc2ccc(-c3nc4ccccn4c3CN3CCN(c4ccccc4)CC3)cc2)cc1 | – | – | – | – | – | – | Activity (HEK293 [14]): Active; Activity (K562/A02 [17]): <30%; Activity (K562 [4]): inactive; IC50 at 72 h [5]: > 100 µM; IC50 at 72 h [7]: > 100 µM; Activity (K562/A02 [8]): Active; IC50 at 72 h [18]: 21 µM; IC50 at 72 h [19]: 12.4 µM; Activity (HEK293 [15]): inactive
COc1cc2c(cc1OC)CN(CC(=O)Nc1ccc(-c3nc4ccccn4c3CO)cc1)CC2 | inactive | inactive | Non-Toxic | Non-Toxic | inactive | inactive | –
